Test results as given in patent US20090238761A1, “Novel Aryl Piperazine Derivatives With Medical Utility” (Universita Degli Studi Di Siena, priority 2005, published 2009).

Compared with `O=C(NCCCCN1CCN(c2ccccc2)CC1)c1cc2ccccc2o1`, `COc1cccc(N2CCN(CCCCNC(=O)c3cc4ccccc4o3)CC2)c1` is lower in melting point: 149 to 150 °C for the first, 104 to 105 °C for the second.

Compared with `Cc1cccc(N2CCN(CCCCNC(=O)c3cc4ccccc4o3)CC2)c1C`, `Cc1cccc(N2CCN(CCCCNC(=O)c3cc4ccccc4o3)CC2)n1` is lower in melting point: 151 to 152 °C for the first, 107 to 109 °C for the second.

First: O=C(NCCCCN1CCN(c2cnc3ccccc3c2)CC1)c1ccccc1
Second: O=C(NCCCCN1CCN(c2cnc3ccccc3c2)CC1)c1cc2ccccc2cn1
The melting point of the first is lower: 124 to 125 °C for the first, 153 to 154 °C for the second.

Compared with `O=C(NCCCCN1CCN(c2ccccc2)CC1)c1cccnc1`, `Cc1cccc(N2CCN(CCCCNC(=O)c3ccccc3)CC2)c1` [Compound 1-46, N-(4-(4-m-Tolylpiperazin-1-yl)butyl)benzamide] is higher in melting point: 119 to 120 °C for the first, 126 to 127 °C for the second.

Compared with `Cc1cccc(N2CCN(CCCCNC(=O)c3ccccc3)CC2)n1`, `COc1cccc(N2CCN(CCCCNC(=O)c3ccccc3)CC2)n1` is higher in melting point: 102 to 103 °C for the first, 120 to 121 °C for the second.

First: O=C1c2cc3ccccc3n2CCN1CCCCN1CCN(c2cccc(Cl)c2)CC1 [Compound 1-9, 2-[4-[4-(3-Chlorophenyl)piperazin-1-yl]butyl]-3,4-dihydropyrazino[1,2-a]indol-1(2H)-one]
Second: Cc1cccc(N2CCN(CCCCN3CCn4c(cc5ccccc54)C3=O)CC2)c1 [Compound 1-11]
The melting point of the first is higher: 180 to 181 °C for the first, 155 to 156 °C for the second.

First: Cc1cccc(N2CCN(CCCCCOc3cc4ccccc4cn3)CC2)c1 [Compound 1-12, 3-[5-(4-m-Tolylpiperazin-1-yl)pentyloxy]isoquinoline]
Second: COc1cccc(N2CCN(CCCCNC(=O)c3ccccc3)CC2)c1 [Compound 1-45, N-(4-(4-(3-Methoxyphenyl)piperazin-1-yl)butyl)benzamide]
The melting point of the first is lower: 94 to 95 °C for the first, 111 to 112 °C for the second.
